From ChEMBL document CHEMBL4177616, “Potent anti-melanogenic activity and favorable toxicity profile of selected 4-phenyl hydroxycoumarins in the zebrafish model and the computational molecular modeling studies” (Bioorg Med Chem, 2017)
Activity calls are given as the source filed them. The calls are words filed in the database; no cut-off is given here.

Columns and labels:
Danio rerio [1] = species: Danio rerio; experiment: Toxicity in wild type zebrafish embryos assessed as skeletal deformities at 100 ug/ml treated for 96 hrs post fertilization starting from 6 hrs post fertilization by inverted microscopic analysis relative to control; format: organism-based; settings: in vivo
Danio rerio [2] = experiment: Toxicity in wild type zebrafish embryos assessed as yolk edema at 1000 ug/ml treated for 96 hrs post fertilization starting from 6 hrs post fertilization by inverted microscopic analysis relative to control; format: organism-based; settings: in vivo
Danio rerio [3] = species: Danio rerio; experiment: Toxicity in wild type zebrafish embryos assessed as growth retardation at 1000 ug/ml treated for 96 hrs post fertilization starting from 6 hrs post fertilization by inverted microscopic analysis relative to control; format: organism-based; settings: in vivo
Danio rerio [4] = species: Danio rerio; experiment: Toxicity in wild type zebrafish embryos assessed as skeletal deformities at 2000 ug/ml treated for 96 hrs post fertilization starting from 6 hrs post fertilization by inverted microscopic analysis relative to control; format: organism-based; settings: in vivo
Danio rerio [5] = experiment: Toxicity in wild type zebrafish embryos assessed as pericardial edema at 2000 ug/ml treated for 96 hrs post fertilization starting from 6 hrs post fertilization by inverted microscopic analysis relative to control; format: organism-based; settings: in vivo
Danio rerio [6] = species: Danio rerio; experiment: Toxicity in wild type zebrafish embryos assessed as unhatched embryo at 500 ug/ml treated for 96 hrs post fertilization starting from 6 hrs post fertilization by inverted microscopic analysis relative to control; format: organism-based; settings: in vivo
Danio rerio [7] = species: Danio rerio; experiment: Toxicity in wild type zebrafish embryos assessed as skeletal deformities at 1000 ug/ml treated for 96 hrs post fertilization starting from 6 hrs post fertilization by inverted microscopic analysis relative to control; format: organism-based; settings: in vivo
Danio rerio [8] = species: Danio rerio; experiment: Toxicity in wild type zebrafish embryos assessed as notochord at 100 ug/ml treated for 96 hrs post fertilization starting from 6 hrs post fertilization by inverted microscopic analysis relative to control; format: organism-based; settings: in vivo
Danio rerio [9] = species: Danio rerio; experiment: Toxicity in wild type zebrafish embryos assessed as otoliths at 500 ug/ml treated for 96 hrs post fertilization starting from 6 hrs post fertilization by inverted microscopic analysis relative to control; format: organism-based; settings: in vivo
Danio rerio [10] = species: Danio rerio; experiment: Anti-melanogenic activity in wild type zebrafish 24 hrs post fertilization embryos assessed as decrease in body pigmentation at >= 500 ug/ml after 48 hrs; format: functional, organism-based
Danio rerio [11] = species: Danio rerio; experiment: Toxicity in wild type zebrafish embryos assessed as otoliths at 2000 ug/ml treated for 96 hrs post fertilization starting from 6 hrs post fertilization by inverted microscopic analysis relative to control; format: organism-based; settings: in vivo
Danio rerio [12] = species: Danio rerio; experiment: Toxicity in wild type zebrafish embryos assessed as teratogenic embryo at 500 ug/ml treated for 96 hrs post fertilization starting from 6 hrs post fertilization by inverted microscopic analysis relative to control; format: organism-based; settings: in vivo
Neutrophil = experiment: Anti-melanogenic activity in mpx:GFP transgenic zebrafish 24 hrs post fertilization embryo neutrophils assessed as decrease in pigmentation at 2 to 2.5 mg/ml; format: functional, cell-based; settings: Danio rerio
Danio rerio [13] = species: Danio rerio; experiment: Toxicity in wild type zebrafish embryos assessed as teratogenic embryo at 2000 ug/ml treated for 96 hrs post fertilization starting from 6 hrs post fertilization by inverted microscopic analysis relative to control; format: organism-based; settings: in vivo
[14] = Toxicity in wild type zebrafish embryos assessed as dead embryo at 2000 ug/ml treated for 96 hrs post fertilization starting from 6 hrs post fertilization by inverted microscopic analysis relative to control; format: organism-based, Danio rerio; settings: in vivo, read-out: Activity
Danio rerio [15] = species: Danio rerio; experiment: Toxicity in wild type zebrafish embryos assessed as head malformation at 100 ug/ml treated for 96 hrs post fertilization starting from 6 hrs post fertilization by inverted microscopic analysis relative to control; format: organism-based; settings: in vivo
Danio rerio [16] = species: Danio rerio; experiment: Toxicity in wild type zebrafish embryos assessed as notochord at 2000 ug/ml treated for 96 hrs post fertilization starting from 6 hrs post fertilization by inverted microscopic analysis relative to control; format: organism-based; settings: in vivo
Danio rerio [17] = species: Danio rerio; experiment: Toxicity in wild type zebrafish embryos assessed as unhatched embryo at 2000 ug/ml treated for 96 hrs post fertilization starting from 6 hrs post fertilization by inverted microscopic analysis relative to control; format: organism-based; settings: in vivo
Danio rerio [18] = species: Danio rerio; experiment: Toxicity in wild type zebrafish embryos assessed as head malformation at 2000 ug/ml treated for 96 hrs post fertilization starting from 6 hrs post fertilization by inverted microscopic analysis relative to control; format: organism-based; settings: in vivo

Question: With O=c1cc(CO)occ1O [KOJIC ACID] as the compound, how does the Activity (Danio rerio [1]) read?
Answer: 0%

Question: What about the Activity (Danio rerio [2]) of the same compound?
Answer: 0%

Question: What about the Activity (Danio rerio [3]) of the same compound?
Answer: 0%

Question: And the Activity (Danio rerio [4])?
Answer: 78.33%

Question: And the Activity (Danio rerio [5])?
Answer: 100%

Question: And the Activity (Danio rerio [6])?
Answer: 0%

Question: What about the Activity (Danio rerio [7]) of the same compound?
Answer: 0%

Question: And the Activity (Danio rerio [8])?
Answer: 0%

Question: What about the Activity (Danio rerio [9]) of the same compound?
Answer: 0%

Question: What about the Activity (Danio rerio [10]) of the same compound?
Answer: Active

Question: What about the Activity (Danio rerio [11]) of the same compound?
Answer: 31.67%

Question: And the Activity (Danio rerio [12])?
Answer: 86.67%

Question: What about the Activity (Neutrophil) of the same compound?
Answer: Active

Question: And the Activity (Danio rerio [13])?
Answer: 100%

Question: And the mortality at 2000 ug/ml [14]?
Answer: 0%

Question: And the Activity (Danio rerio [15])?
Answer: 0%

Question: What about the Activity (Danio rerio [16]) of the same compound?
Answer: 0%

Question: What about the Activity (Danio rerio [17]) of the same compound?
Answer: 0%

Question: What about the Activity (Danio rerio [18]) of the same compound?
Answer: 78.33%
